Laboratory results published in ChEMBL document CHEMBL3352200, “Thio-sugar motif of functional CARB-pharmacophore for antineoplastic activity. Part 2” (Bioorg Med Chem Lett, 2014).
Each block holds one molecule with its values, some of them ahead of it.

Assays:
[1] = system: A549; assay: Cytotoxicity against human A549 cells after 14 hrs by CCK-8 assay; type: functional, cell-based; settings: A549, 14 h
[2] = system: HeLa; assay: Cytotoxicity against human HeLa cells after 14 hrs by CCK-8 assay; type: functional, cell-based
[3] = system: MCF7; assay: Cytotoxicity against human MCF7 cells after 14 hrs by CCK-8 assay; type: functional, cell-based; settings: MCF7, 14 h
[4] = system: LoVo; assay: Cytotoxicity against human LoVo cells after 14 hrs by CCK-8 assay; type: functional, cell-based
[5] = Cytotoxicity against human PNT2 cells at 8.6 to 2200 uM after 14 hrs by CCK-8 assay; type: cell-based; settings: pnt2, 14 h
[6] = system: LoVo; assay: Induction of apoptosis in human LoVo cells assessed as viable cells at 69 uM after 4 hrs by FITC Annexin-V/propidium iodide staining-based flow cytometry (reference value: 79.50%); type: functional; settings: read-out: Activity
[7] = system: LoVo; assay: Induction of apoptosis in human LoVo cells assessed as viable cells at 550 uM after 4 hrs by FITC Annexin-V/propidium iodide staining-based flow cytometry (reference value: 79.50%); type: functional; settings: read-out: Activity
[8] = system: LoVo; assay: Induction of apoptosis in human LoVo cells assessed as apoptotic cells at 69 uM after 4 hrs by FITC Annexin-V/propidium iodide staining-based flow cytometry (reference value: 20.50%); type: functional
[9] = system: LoVo; assay: Induction of apoptosis in human LoVo cells assessed as apoptotic cells at 550 uM after 4 hrs by FITC Annexin-V/propidium iodide staining-based flow cytometry (reference value: 20.50%); type: functional
[10] = system: A549; assay: Induction of apoptosis in human A549 cells assessed as viable cells at 34 uM after 4 hrs by FITC Annexin-V/propidium iodide staining-based flow cytometry (reference value: 84.40%); type: functional; settings: A549, 4 h, read-out: Activity
[11] = system: A549; assay: Induction of apoptosis in human A549 cells assessed as viable cells at 275 uM after 4 hrs by FITC Annexin-V/propidium iodide staining-based flow cytometry (reference value: 84.40%); type: functional; settings: A549, 4 h, read-out: Activity
[12] = system: A549; assay: Induction of apoptosis in human A549 cells assessed as apoptotic cells at 34 uM after 4 hrs by FITC Annexin-V/propidium iodide staining-based flow cytometry (reference value: 15.60%); type: functional
[13] = system: A549; assay: Induction of apoptosis in human A549 cells assessed as apoptotic cells at 275 uM after 4 hrs by FITC Annexin-V/propidium iodide staining-based flow cytometry (reference value: 15.60%); type: functional
[14] = system: MCF7; assay: Induction of apoptosis in human MCF7 cells assessed as viable cells at 17 uM after 4 hrs by FITC Annexin-V/propidium iodide staining-based flow cytometry (reference value: 70.40%); type: functional; settings: MCF7, 4 h, read-out: Activity
[15] = system: MCF7; assay: Induction of apoptosis in human MCF7 cells assessed as viable cells at 137 uM after 4 hrs by FITC Annexin-V/propidium iodide staining-based flow cytometry (reference value: 70.40%); type: functional; settings: MCF7, 4 h, read-out: Activity
[16] = system: MCF7; assay: Induction of apoptosis in human MCF7 cells assessed as apoptotic cells at 17 uM after 4 hrs by FITC Annexin-V/propidium iodide staining-based flow cytometry (reference value: 29.60%); type: functional
[17] = system: MCF7; assay: Induction of apoptosis in human MCF7 cells assessed as apoptotic cells at 137 uM after 4 hrs by FITC Annexin-V/propidium iodide staining-based flow cytometry (reference value: 29.60%); type: functional
[18] = system: HeLa; assay: Induction of apoptosis in human HeLa cells assessed as viable cells at 17 uM after 4 hrs by FITC Annexin-V/propidium iodide staining-based flow cytometry (reference value: 87.00%); type: functional; settings: read-out: Activity
[19] = system: HeLa; assay: Induction of apoptosis in human HeLa cells assessed as viable cells at 137 uM after 4 hrs by FITC Annexin-V/propidium iodide staining-based flow cytometry (reference value: 87.00%); type: functional; settings: read-out: Activity
[20] = system: HeLa; assay: Induction of apoptosis in human HeLa cells assessed as apoptotic cells at 17 uM after 4 hrs by FITC Annexin-V/propidium iodide staining-based flow cytometry (reference value: 13.00%); type: functional
[21] = system: HeLa; assay: Induction of apoptosis in human HeLa cells assessed as apoptotic cells at 137 uM after 4 hrs by FITC Annexin-V/propidium iodide staining-based flow cytometry (reference value: 13.00%); type: functional
[22] = Lipophilicity, log P of the compound; type: physicochemical; settings: octanol/water
[23] = system: LoVo; assay: Induction of apoptosis in human LoVo cells assessed as viable cells at 34 uM after 4 hrs by FITC Annexin-V/propidium iodide staining-based flow cytometry (reference value: 79.50%); type: functional; settings: read-out: Activity
[24] = system: LoVo; assay: Induction of apoptosis in human LoVo cells assessed as viable cells at 275 uM after 4 hrs by FITC Annexin-V/propidium iodide staining-based flow cytometry (reference value: 79.50%); type: functional; settings: read-out: Activity
[25] = system: LoVo; assay: Induction of apoptosis in human LoVo cells assessed as apoptotic cells at 34 uM after 4 hrs by FITC Annexin-V/propidium iodide staining-based flow cytometry (reference value: 20.50%); type: functional
[26] = system: LoVo; assay: Induction of apoptosis in human LoVo cells assessed as apoptotic cells at 275 uM after 4 hrs by FITC Annexin-V/propidium iodide staining-based flow cytometry (reference value: 20.50%); type: functional
[27] = system: A549; assay: Induction of apoptosis in human A549 cells assessed as viable cells at 17 uM after 4 hrs by FITC Annexin-V/propidium iodide staining-based flow cytometry (reference value: 84.40%); type: functional; settings: A549, 4 h, read-out: Activity
[28] = system: A549; assay: Induction of apoptosis in human A549 cells assessed as viable cells at 137 uM after 4 hrs by FITC Annexin-V/propidium iodide staining-based flow cytometry (reference value: 84.40%); type: functional; settings: A549, 4 h, read-out: Activity
[29] = system: A549; assay: Induction of apoptosis in human A549 cells assessed as apoptotic cells at 17 uM after 4 hrs by FITC Annexin-V/propidium iodide staining-based flow cytometry (reference value: 15.60%); type: functional
[30] = system: A549; assay: Induction of apoptosis in human A549 cells assessed as apoptotic cells at 137 uM after 4 hrs by FITC Annexin-V/propidium iodide staining-based flow cytometry (reference value: 15.60%); type: functional
[31] = system: MCF7; assay: Induction of apoptosis in human MCF7 cells assessed as viable cells at 34 uM after 4 hrs by FITC Annexin-V/propidium iodide staining-based flow cytometry (reference value: 70.40%); type: functional; settings: MCF7, 4 h, read-out: Activity
[32] = system: MCF7; assay: Induction of apoptosis in human MCF7 cells assessed as viable cells at 275 uM after 4 hrs by FITC Annexin-V/propidium iodide staining-based flow cytometry (reference value: 70.40%); type: functional; settings: MCF7, 4 h, read-out: Activity
[33] = system: MCF7; assay: Induction of apoptosis in human MCF7 cells assessed as apoptotic cells at 34 uM after 4 hrs by FITC Annexin-V/propidium iodide staining-based flow cytometry (reference value: 29.60%); type: functional
[34] = system: MCF7; assay: Induction of apoptosis in human MCF7 cells assessed as apoptotic cells at 275 uM after 4 hrs by FITC Annexin-V/propidium iodide staining-based flow cytometry (reference value: 29.60%); type: functional

logP [22]: 1.28
Structure (SMILES): O=C(O)c1ccccc1S[C@H]1CC(=O)[C@@H]2OC[C@H]1O2
IC50 [1]: 311 µM
IC50 [2]: 434 µM
IC50 [3]: 218 µM
IC50 [4]: 641 µM
Activity [5]: 10%
viability at 69 µM [6]: 70.9%
viability at 550 µM [7]: 37.8%
Activity [8]: 29.1%
Activity [9]: 62.2%
viability at 34 µM [10]: 72.6%
viability at 275 µM [11]: 62.2%
Activity [12]: 27.4%
Activity [13]: 37.84%
viability at 17 µM [14]: 60.9%
viability at 137 µM [15]: 37.5%
Activity [16]: 39.1%
Activity [17]: 62.5%
viability at 17 µM [18]: 75.5%
viability at 137 µM [19]: 74.2%
Activity [20]: 24.5%
Activity [21]: 25.8%

logP [22]: -1.13
Structure (SMILES): CC(=O)OC[C@H]1O[C@@H](S[C@H]2CC(=O)[C@@H]3OC[C@H]2O3)[C@H](OC(C)=O)[C@@H](OC(C)=O)[C@H]1OC(C)=O
IC50 [1]: 467 µM
IC50 [2]: 676 µM
IC50 [3]: 344 µM
IC50 [4]: 624 µM
Activity [5]: 10%
viability at 34 µM [23]: 65.1%
viability at 275 µM [24]: 70%
Activity [25]: 34.9%
Activity [26]: 30%
viability at 17 µM [27]: 71%
viability at 137 µM [28]: 78.1%
Activity [29]: 29%
Activity [30]: 21.9%
viability at 34 µM [31]: 57.8%
viability at 275 µM [32]: 80.8%
Activity [33]: 42.2%
Activity [34]: 19.2%
viability at 17 µM [18]: 74.1%
viability at 137 µM [19]: 37.2%
Activity [20]: 25.9%
Activity [21]: 62.8%
